The values below come from PubChem BioAssay (NCI).

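These data come from cells grown in 96-well plates and exposed to compound for 48 hours at five concentrations. GI50 marks 50% less growth. TGI denotes the concentration required for complete inhibition of growth.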 A value given as a limit tells only on which side of the number the result lay.

Test systems include M19-MEL melanoma; RXF-631 renal; LXFL 529 NSCLC; HOP-18 NSCLC; KM20L2 colon; DMS 273 small cell lung; XF 498 CNS; MDA-N; P388 leukemia; SN12K1 renal; P388/ADR leukemia.
What all share (experiment): NCI tumour cell line growth inhibition, 48 h

Consider `CC1=C(Cl)C=CP(=O)(OC(C)C)C1` (stereo unspecified), for which the TGI in the test with M19-MEL melanoma, with RXF-631 renal, with LXFL 529 NSCLC, in the test on HOP-18 NSCLC and in the test on KM20L2 colon was greater than 100 µM each time.

As to `C=C1C2CC(OC(C)=O)C3(C)C(c4ccoc4)OC(=O)[C@@H](O)[C@]13OC1C[C@H](OC(C)=O)C(C)(C)[C@H](CC(=O)OC)[C@]12C` (stereo partly specified), the TGI in the test with M19-MEL melanoma, with RXF-631 renal, in the test on DMS 273 small cell lung, with LXFL 529 NSCLC, with HOP-18 NSCLC and with KM20L2 colon was greater than 100 µM each time.

Turning to `COc1ccc2c(c1)[n+]([O-])c(-c1ccc(C)cc1)c(N)[n+]2[O-]`, the TGI in the test on M19-MEL melanoma, in the test on DMS 273 small cell lung, in the test with LXFL 529 NSCLC, with HOP-18 NSCLC and with KM20L2 colon was greater than 100 µM each time.

As to `C#CC1(O)c2ccccc2C(=O)c2ccccc21`, the TGI in the test on M19-MEL melanoma, with XF 498 CNS, in the test with DMS 273 small cell lung, in the test with LXFL 529 NSCLC, in the test with HOP-18 NSCLC and in the test with KM20L2 colon was greater than 100 µM in each case.

`C/C(=N\NC(=S)N1CC2CCC(CC2)C1)c1cccc(C)n1` had a TGI with MDA-N of 17.8 µM.

`COc1ccc(-c2cc(-c3cc(Cl)cc(Br)c3O)[nH]c(=O)n2)cc1`: the TGI in the test on M19-MEL melanoma is 46.4 µM; in the test on DMS 273 small cell lung it was 31.1 µM; with LXFL 529 NSCLC, 30 µM; with HOP-18 NSCLC, 55.7 µM; in the test on KM20L2 colon, 38.6 µM.

Turning to `Cc1ccc(NC(=S)SCCC(=O)O)cc1`, the TGI in the test on RXF-631 renal, in the test on DMS 273 small cell lung, in the test with LXFL 529 NSCLC and in the test on KM20L2 colon was greater than 100 µM in each case.

Consider `CC(=O)[CH-]C(=O)c1ccccc1.CC(=O)[CH-]C(=O)c1ccccc1.Cl.[O-]c1ccccn1.[O-]c1ccccn1.[Ti+4]`, for which the GI50 in the test with M19-MEL melanoma, in the test with LXFL 529 NSCLC and with KM20L2 colon was greater than 100 µM each time. The TGI in the test on M19-MEL melanoma, in the test on LXFL 529 NSCLC and in the test on KM20L2 colon was greater than 100 µM throughout.

With `CC12CO[C@@](C)(CC(S(=O)(=O)c3ccccc3)C1)O2` (stereo partly specified), the TGI in the test with M19-MEL melanoma, in the test on DMS 273 small cell lung, in the test on LXFL 529 NSCLC, in the test on HOP-18 NSCLC and in the test with KM20L2 colon was greater than 100 µM throughout.

On to `COC(=O)C1C=NNC1C(=O)OC` (stereo unspecified), for which the TGI in the test on M19-MEL melanoma, with RXF-631 renal, in the test with XF 498 CNS, in the test with DMS 273 small cell lung, with LXFL 529 NSCLC and with HOP-18 NSCLC was greater than 100 µM throughout. Moreover, in the test on KM20L2 colon, the TGI was greater than 100 µM.

`CCCCN(CCCC)CCC(O)c1cc2c(Cl)cc(Cl)cc2c2cc(C(F)(F)F)ccc12` (stereo unspecified) gave a TGI in the test with MDA-N of 26 µM.

For `O=S1(=O)CCCS(=O)(=O)C(c2ccccc2)=C1c1ccccc1`, the TGI with M19-MEL melanoma is greater than 100 µM; in the test with RXF-631 renal, greater than 100 µM; with LXFL 529 NSCLC, greater than 100 µM; with HOP-18 NSCLC it was greater than 100 µM; with KM20L2 colon, 72.1 µM.

In the case of `C/C(=N\NC(=S)N1CCCCCCCCCCCC1)c1ccccn1`, the TGI in the test with MDA-N is 1.16 µM.

Take `Oc1ccc(CCNCc2cc3c(cc2Br)OCO3)cc1`: the TGI in the test on MDA-N is greater than 100 µM.

In turn, `O=C(O)CCc1c2ccc(=O)c(O)c-2oc2c(O)c(O)ccc12` registered a TGI in the test on MDA-N of 36.5 µM.

For the molecule `CCN(CC)C(=O)N1CCN(C=S)CC1`, the TGI in the test with M19-MEL melanoma, with DMS 273 small cell lung, with LXFL 529 NSCLC, in the test on HOP-18 NSCLC and with KM20L2 colon was greater than 100 µM in each case.

In the case of `O=c1c(Br)cc2c(-c3ccccc3)c3cc(Br)c(O)c(Br)c3oc-2c1Br`, the TGI in the test on MDA-N was greater than 100 µM.

For `Cc1ccc(-c2cc(=O)c3cc(C)c(C)c(C(=O)O)c3o2)cc1N`, the TGI in the test on M19-MEL melanoma, with RXF-631 renal, in the test on XF 498 CNS, in the test with LXFL 529 NSCLC, in the test with HOP-18 NSCLC and in the test on KM20L2 colon was greater than 100 µM throughout.

Molecule `COc1c(-c2ccc(O)c(O)c2)oc2c(O)c(O)cc(O)c2c1=O` came in with a TGI in the test with MDA-N greater than 100 µM.

Take `CCOC(=N)CC(=O)Nc1cccc(Cl)c1`: the TGI with M19-MEL melanoma, in the test with RXF-631 renal, with XF 498 CNS, in the test with DMS 273 small cell lung, in the test with LXFL 529 NSCLC and in the test with KM20L2 colon was greater than 100 µM in each case.

As for `O=C(CC1(O)C(=O)Nc2ccccc21)c1ccc(O)cc1` (stereo unspecified), the TGI with M19-MEL melanoma, in the test on RXF-631 renal, with DMS 273 small cell lung, in the test with LXFL 529 NSCLC, with HOP-18 NSCLC and with KM20L2 colon was greater than 100 µM throughout.

`NC(N)=Nc1nc2ccc([N+](=O)[O-])cc2[nH]1` displayed a TGI with MDA-N greater than 100 µM.

Regarding `Clc1ccc2nc(-c3ccccc3)nc(Cl)c2c1`, the TGI with M19-MEL melanoma, in the test on RXF-631 renal, in the test with DMS 273 small cell lung, in the test on LXFL 529 NSCLC and in the test with KM20L2 colon was greater than 100 µM in each case.

`O=c1c(NO)c([N+](=O)[O-])cnn1-c1ccccc1`: the TGI came out at 12.2 µM in the test with M19-MEL melanoma; 6.18 µM in the test on RXF-631 renal; 8.38 µM with XF 498 CNS; 13.4 µM in the test on DMS 273 small cell lung; 3.17 µM in the test with LXFL 529 NSCLC; 4.02 µM in the test on MDA-N. The TGI with HOP-18 NSCLC was 37.5 µM; in the test on KM20L2 colon, 18.3 µM.

For the molecule `O=S1(=O)CS(=O)(=O)OCCO1`, the TGI in the test on P388 leukemia was found to be 119 µM; in the test with SN12K1 renal, 92.4 µM; with M19-MEL melanoma it was 126 µM; in the test on P388/ADR leukemia, 91.8 µM; in the test with XF 498 CNS it was 47.1 µM; in the test with DMS 273 small cell lung, 215 µM. Moreover, the TGI turned out to be 80.3 µM with MDA-N, 436 µM with HOP-18 NSCLC and 331 µM in the test with KM20L2 colon.

Regarding `C=C(CC(=O)O)C(=O)O` (tested in a mixture with another compound), in the test with MDA-N, the GI50 was greater than 50 µg/mL and the TGI was greater than 50 µg/mL.

For `C/C(=N\N=C(\[Se])N(C)C)c1ccccn1`, the TGI is less than 0.01 µM in the test on P388 leukemia; 13.9 µM in the test on SN12K1 renal; 5.02 µM in the test with M19-MEL melanoma; 74.1 µM in the test on RXF-631 renal; less than 0.01 µM with P388/ADR leukemia; 20.6 µM with XF 498 CNS. Moreover, the TGI is 5.29 µM in the test with DMS 273 small cell lung; 13.8 µM in the test on LXFL 529 NSCLC; 26.3 µM in the test on MDA-N; 12.1 µM with HOP-18 NSCLC; 12.6 µM in the test with KM20L2 colon.

As for `COc1cccc2c1C(=O)c1c(O)c3c(c(O)c1C2=O)C[C@@](O)(C(=O)CO)CC3OC1CC(O)C(O)C(C)O1` (stereo partly specified), the TGI came out at 1.96 µM in the test with M19-MEL melanoma; 21.2 µM with RXF-631 renal; 1.24 µM with XF 498 CNS; 0.4 µM in the test on DMS 273 small cell lung; 9.26 µM with LXFL 529 NSCLC; 1.98 µM with MDA-N. For the same molecule, the TGI turned out to be 6.06 µM in the test with HOP-18 NSCLC and 6.28 µM with KM20L2 colon.

For `CC(CNCCCNCCNCCCNCO)[N+](=O)[O-]` (stereo unspecified), the TGI was 30.3 µM in the test with RXF-631 renal; 29.9 µM in the test with XF 498 CNS; 32.4 µM in the test on DMS 273 small cell lung; 13.9 µM with LXFL 529 NSCLC; 28.3 µM with HOP-18 NSCLC; 31.7 µM in the test with KM20L2 colon.

Turning to `O=S(=O)([O-])[O-].[Cl-].[NH2-].[NH2-].[NH2-].[NH2-].[Ru+3].c1ccncc1`, the TGI in the test on DMS 273 small cell lung, with LXFL 529 NSCLC and with KM20L2 colon was greater than 100 µM throughout.

As to `Cc1cccc(N2C(=O)C(=O)C(c3nc4ccccc4s3)/C(=N/NC(=S)NN)C2=O)c1C` (stereo unspecified), the TGI in the test with M19-MEL melanoma, in the test with RXF-631 renal, in the test on XF 498 CNS, in the test with DMS 273 small cell lung, in the test with LXFL 529 NSCLC and with KM20L2 colon was greater than 100 µM throughout.

As to `CCOC(=O)C1=C(C)N(NC(N)=O)C(C)(O)C12CCOC2=O` (stereo unspecified), the TGI in the test on M19-MEL melanoma, in the test on RXF-631 renal, with XF 498 CNS, in the test with DMS 273 small cell lung, with LXFL 529 NSCLC and with KM20L2 colon was greater than 100 µM each time.

Take `CCCCCCCCCCCCCCCC(=O)OCC1OC(OC)C2NP(=O)(N(CCCl)CCCl)OC1C2O` (stereo unspecified): the TGI was greater than 75.3 µM with M19-MEL melanoma; 25.7 µM in the test with RXF-631 renal; 7.83 µM in the test with XF 498 CNS; 5.09 µM in the test on DMS 273 small cell lung; 8.06 µM with LXFL 529 NSCLC; 33.6 µM in the test with HOP-18 NSCLC. This molecule came in with a TGI with KM20L2 colon of 46.7 µM.

`O=[N+]([O-])c1ccc(/C=C/c2csnn2)cc1`: the TGI with M19-MEL melanoma, with LXFL 529 NSCLC and in the test on HOP-18 NSCLC was greater than 100 µM in each case.

Molecule `CC(/C=C/c1ccccc1)=N\NC(N)=S` registered a TGI in the test on MDA-N greater than 100 µM.

On to `COC(=O)N/N=C(/CCC(=O)Nc1ccc(C)c(C)c1)CC(=O)C(C)(C)C`, for which the TGI with M19-MEL melanoma, with XF 498 CNS, in the test with DMS 273 small cell lung, with LXFL 529 NSCLC, in the test on HOP-18 NSCLC and in the test with KM20L2 colon was greater than 100 µM in each case.

As for `O=[N+]([O-])c1ccccc1C=NC12CC3CC(CC(C3)C1)C2`, the TGI in the test on M19-MEL melanoma, in the test with RXF-631 renal, with XF 498 CNS, with DMS 273 small cell lung, in the test with LXFL 529 NSCLC and with HOP-18 NSCLC was greater than 100 µM in each case. The TGI in the test with KM20L2 colon was greater than 100 µM.

For `O=[N+]([O-])c1cc(Cl)ccc1OCc1ccccc1`, the TGI with M19-MEL melanoma, with RXF-631 renal, in the test on XF 498 CNS, in the test with DMS 273 small cell lung and in the test with LXFL 529 NSCLC was greater than 100 µM in each case.

For `COc1cc2c(cc1OC)NC(=O)NC(Cc1ccc3c(c1)OCO3)CC2` (stereo unspecified), the TGI in the test with M19-MEL melanoma, in the test on XF 498 CNS, in the test on DMS 273 small cell lung, in the test on LXFL 529 NSCLC and in the test with KM20L2 colon was greater than 100 µM in each case.

As to `COC(=O)C(CBr)CBr`, the TGI came to 17.2 µM in the test on M19-MEL melanoma; 8.96 µM in the test on RXF-631 renal; 4.54 µM in the test with XF 498 CNS; 29.3 µM in the test on DMS 273 small cell lung; 3.22 µM in the test on LXFL 529 NSCLC; 9.22 µM in the test with MDA-N.

For `CC1(C)C(=O)/C=C\C(=O)C(C)(C)C(=O)/C=C\C(=O)C(C)(C)C(=O)/C=C\C(=O)C(C)(C)C(=O)/C=C\C1=O`, the TGI with M19-MEL melanoma was 40.6 µM; with XF 498 CNS, 51.4 µM; with DMS 273 small cell lung, 37.4 µM; in the test with LXFL 529 NSCLC it was 21.3 µM; in the test on MDA-N it was greater than 100 µM; with HOP-18 NSCLC, 40.6 µM. Also, the TGI with KM20L2 colon turned out to be 83.2 µM.
